Columns and labels:
SARS-CoV-2 = test: Protective effect against death in SARS-CoV-2 infected mice; format: in vivo, hACE2 transgenic C57BL/6 mice; details: for Number of Survivors / Number of Deaths: 8 mice; for Number of Deaths: 5-day
Method: 1.1 Test Drug: Genipin-1-β-D-gentiobioside. […] Dosage for mice: 37.5 mg/kg and 75 mg/kg, administered by intraperitoneal injection once daily for 5 consecutive days.
1.2 Experimental Animals: human angiotensin-converting enzyme 2 (hACE2) transgenic C57BL/6 mice, aged 6˜7 weeks, weighing 18˜25 g, a total of 32 mice provided by GemPharmatech Co., Ltd., with a license number of SCXK (Su) 2018-008.
2.1 Grouping and Drug Administration: hACE2 transgenic C57BL/6 mice were divided into four groups, namely the blank control group, the SARS-CoV-2 infection group, the Genipin-1-β-D-gentiobioside (37.5 mg/kg) treatment group, and the Genipin-1-β-D-gentiobioside (75 mg/kg) treatment group, with 8 mice in each group. Except for the normal group, which received intranasal administration of Phosphate Buffered Saline (PBS), the other groups were infected with 10^4 Plaque Forming Unit (PFU) of Severe Acute Respiratory Syndrome Coronavirus 2 (SARS-CoV-2) virus via intranasal instillation. Two hours' post-infection, the treatment groups received intraperitoneal injections of the drug once daily for 5 consecutive days. Mouse deaths were recorded daily after infection, and the 5-day mortality rate was calculated. At the end of the experiment, the lung tissues were collected and homogenized for virus titer detection.

Human Coronavirus 229E = test: Cytokines in lung tissue of mice infected with human coronavirus 229E (ELISA); format: in vivo; details: 4 days
Method: Seventy Institute of Cancer Research Mouse (ICR) mice were randomly divided into seven groups based on body weight: a normal control group, a model control group, a chloroquine phosphate control group, and four Genipin-1-β-D-gentiobioside dosage groups (75 mg/ml, 37.5 mg/ml, 18.75 mg/ml, and 9.375 mg/ml), with ten mice in each group. Except for the normal control group, the other mice were lightly anesthetized with isoflurane and infected intranasally with 50 μl of 100 TCID50 coronavirus strain 229E or OC43. The infection was repeated every other day. Nebulization administration began on the same day as the first infection, with a flow rate of 7.5 L/min. The four Genipin-1-β-D-gentiobioside dosage groups were nebulized for 25 minutes each. The chloroquine phosphate control group was administered 0.2 ml/10 g body weight by gavage once daily for four consecutive days. The normal control group and the model control group were nebulized with distilled water for 25 minutes under the same conditions. On the fifth day, the mice were dissected, and the following indicators were measured:
(2) The left lung lobes were used for viral nucleic acid detection, while the right lung lobes were used for the quantification of inflammatory factors: IL-6, IL-10, and TNF-α.
The inhalation administration samples mentioned above were used. The weight of the lung tissue was measured, and an appropriate amount of physiological saline was added to make a 10% tissue homogenate. After homogenizing the tissue using a high-throughput tissue grinder, it was centrifuged at 4° C. and 3000 rpm for 10 minutes using a low-temperature high-speed centrifuge. The supernatant was then aspirated, aliquotted, and stored at −80° C. for future use, avoiding repeated freeze-thaw cycles. For detection, the absorbance at 450 nm was measured using a microplate reader according to the kit instructions.

[1] = 37.5 mg/kg intraperitoneal once daily 5 days
[2] = 75 mg/kg intraperitoneal once daily 5 days

COC(=O)C1=CO[C@@H](O[C@@H]2O[C@H](CO[C@@H]3O[C@H](CO)[C@@H](O)[C@H](O)[C@H]3O)[C@@H](O)[C@H](O)[C@H]2O)[C@@H]2C(CO)=CC[C@H]12 [Genipin-1-β-D-gentiobioside]
Death Rate (SARS-CoV-2; [1]): 37.5% | Survival Rate (SARS-CoV-2; [1]): 62.5% | Number of Survivors (SARS-CoV-2; [1]): 5 | Number of Deaths (SARS-CoV-2; [1]): 3 | Death Rate (SARS-CoV-2; [2]): 25% | Survival Rate (SARS-CoV-2; [2]): 75% | Number of Survivors (SARS-CoV-2; [2]): 6 | Number of Deaths (SARS-CoV-2; [2]): 2 | Cytokine Levels in Lung Tissue IL-6 (Human Coronavirus 229E; 9.375 mg/ml inhalation): 98.70 ± 4.56 pg/mL | Cytokine Levels in Lung Tissue IL-10 (Human Coronavirus 229E; 9.375 mg/ml inhalation): 331.34 ± 28.00 pg/mL | Cytokine Levels in Lung Tissue TNF-α (Human Coronavirus 229E; 9.375 mg/ml inhalation): 511.16 ± 80.14 pg/mL | Cytokine Levels in Lung Tissue IL-6 (Human Coronavirus 229E; 18.75 mg/ml inhalation): 99.51 ± 5.24 pg/mL | Cytokine Levels in Lung Tissue IL-10 (Human Coronavirus 229E; 18.75 mg/ml inhalation): 330.61 ± 25.07 pg/mL | Cytokine Levels in Lung Tissue TNF-α (Human Coronavirus 229E; 18.75 mg/ml inhalation): 503.00 ± 56.50 pg/mL | Cytokine Levels in Lung Tissue IL-6 (Human Coronavirus 229E; 37.5 mg/ml inhalation): 98.23 ± 3.42 pg/mL | Cytokine Levels in Lung Tissue IL-10 (Human Coronavirus 229E; 37.5 mg/ml inhalation): 334.12 ± 25.59 pg/mL | Cytokine Levels in Lung Tissue TNF-α (Human Coronavirus 229E; 37.5 mg/ml inhalation): 513.28 ± 58.74 pg/mL | Cytokine Levels in Lung Tissue IL-6 (Human Coronavirus 229E; 75 mg/ml inhalation): 98.31 ± 2.78 pg/mL | Cytokine Levels in Lung Tissue IL-10 (Human Coronavirus 229E; 75 mg/ml inhalation): 341.12 ± 29.07 pg/mL | Cytokine Levels in Lung Tissue TNF-α (Human Coronavirus 229E; 75 mg/ml inhalation): 511.81 ± 51.82 pg/mL
